Experimental data taken from ChEMBL document CHEMBL5634152, “The discovery of water-soluble indazole derivatives as potent microtubule polymerization inhibitors” (Eur J Med Chem, 2023).
≈ marks a conversion by molar mass, not a printed value. Calls of active or inactive are those of the source. No cut-off for these calls is given here.

How the values were obtained:
[1] = test system: A549; assay: cells; conditions: Homo sapiens
Description: Antiproliferative activity against human A549 cells assessed as cell growth inhibition incubated for72 hrs by MTT assay

[2] = test system: Huh-7; assay: cells; conditions: Homo sapiens
Description: Antiproliferative activity against human Huh-7 cells assessed as cell growth inhibition incubated for72 hrs by MTT assay

[3] = test system: T-24; assay: cells; conditions: Homo sapiens
Description: Antiproliferative activity against human T-24 cells assessed as cell growth inhibition incubated for72 hrs by MTT assay

[4] = test system: A549/TR; assay: Antiproliferative activity against human A549/Taxol cells assessed as cell growth inhibition incubated for72 hrs by MTT assay; assay type: functional, cell-based
[5] = Resistance index, ratio of IC50 for human A549/Taxol cells to IC50 for human A549 cells; assay type: functional
[6] = Aqueous solubility of compound in pH 7.4 at 10 mg/ml by HPLC analysis; assay type: physicochemical; conditions: buffer
[7] = Lipophilicity, logP of compound in n-octanol-water at 5 mg/ml incubated for 8 hrs by HPLC analysis; assay type: physicochemical
[8] = target: T1, Tubulin (Homo sapiens) (UniProt P68371+Q9H4B7+P0DPH7+P68366+Q13509+Q71U36+P04350+Q3ZCM7+P07437+P68363+Q9BQE3+Q6PEY2+Q13885+Q9BVA1+Q9BUF5); assay: Binding affinity to tubulin polymerization at colchicine-binding site in human A549 cells assessed as N,N'-ethylene- bis(iodoacetamide)/beta-tubulin adduct formation at 5 to 25 uM incubated for 2 hrs by chemiluminescence based assay; assay type: cell-based; conditions: dose 5-25 µM
[9] = organism: Sus scrofa; assay: Inhibition of pig brain tubulin polymerization by absorbance based assay; assay type: tissue-based; conditions: dose <= 6.0 µM
[10] = Inhibition of pig brain tubulin polymerization measured after 20 mins by absorbance based assay; assay type: tissue-based, Sus scrofa
[11] = target: T1, Tubulin (Homo sapiens); assay: Inhibition of tubulin polymerization in human A549 cells assessed as disruption of microtubule aggregation incubated for 24 hrs by immunofluorescence based analysis; assay type: cell-based; conditions: dose 12.5-25 nM
[12] = target: T1, Tubulin (Homo sapiens); assay: Inhibition of tubulin polymerization in human A549 cells assessed as decrease in spindle formation incubated for 24 hrs by immunofluorescence based analysis; assay type: cell-based; conditions: dose 12.5-25 nM
[13] = target: T1, Tubulin (Homo sapiens); assay: Binding affinity to tubulin polymerization in human A549 cells assessed as N,N'-ethylene- bis(iodoacetamide)/beta-tubulin adduct formation at 5 uM incubated for 2 hrs by chemiluminescence based assay; assay type: cell-based
[14] = target: T1, Tubulin (Homo sapiens); assay: Binding affinity to tubulin polymerization at colchicine-binding site in human A549 cells assessed as N,N'-ethylene- bis(iodoacetamide)/beta-tubulin adduct formation incubated for 2 hrs by chemiluminescence based assay; assay type: cell-based; conditions: dose 0.1-25 µM
[15] = test system: A549; assay: Induction of cell cycle arrest at G1 phase in human A549 cells at 12.5 nM incubated for 24 hrs by flow cytometry (reference value: 71.30 %); assay type: functional
[16] = test system: A549; assay: Induction of cell cycle arrest at S phase in human A549 cells at 12.5 nM incubated for 24 hrs by flow cytometry (reference value: 24.86 %); assay type: functional
[17] = test system: A549; assay: Induction of cell cycle arrest at G2/M phase in human A549 cells at 12.5 nM incubated for 24 hrs by flow cytometry (reference value: 3.84 %); assay type: functional
[18] = test system: A549; assay: Induction of cell cycle arrest at G1 phase in human A549 cells at 25 nM incubated for 24 hrs by flow cytometry (reference value: 71.30 %); assay type: functional
[19] = test system: A549; assay: Induction of cell cycle arrest at S phase in human A549 cells at 25 nM incubated for 24 hrs by flow cytometry (reference value: 24.86 %); assay type: functional
[20] = test system: A549; assay: Induction of cell cycle arrest at G2/M phase in human A549 cells at 25 nM incubated for 24 hrs by flow cytometry (reference value: 3.84 %); assay type: functional
[21] = test system: A549; assay: Induction of apoptosis in human A549 cells assessed as viable cells at 12.5 nM incubated for 24 hrs by Annexin V/7-Aad staining based flow cytometry (reference value: 93.63 %); assay type: functional; conditions: read-out: Activity
[22] = test system: A549; assay: Induction of apoptosis in human A549 cells assessed as early apoptotic cells at 12.5 nM incubated for 24 hrs by Annexin V/7-Aad staining based flow cytometry (reference value: 1.05 %); assay type: functional
[23] = test system: A549; assay: Induction of apoptosis in human A549 cells assessed as late apoptotic cells at 12.5 nM incubated for 24 hrs by Annexin V/7-Aad staining based flow cytometry (reference value: 3.20 %); assay type: functional
[24] = test system: A549; assay: Induction of apoptosis in human A549 cells assessed as necrotic cells at 12.5 nM incubated for 24 hrs by Annexin V/7-Aad staining based flow cytometry (reference value: 2.13 %); assay type: functional
[25] = test system: A549; assay: Induction of apoptosis in human A549 cells assessed as viable cells at 25 nM incubated for 24 hrs by Annexin V/7-Aad staining based flow cytometry (reference value: 93.63 %); assay type: functional; conditions: read-out: Activity
[26] = test system: A549; assay: Induction of apoptosis in human A549 cells assessed as early apoptotic cells at 25 nM incubated for 24 hrs by Annexin V/7-Aad staining based flow cytometry (reference value: 1.05 %); assay type: functional
[27] = test system: A549; assay: Induction of apoptosis in human A549 cells assessed as late apoptotic cells at 25 nM incubated for 24 hrs by Annexin V/7-Aad staining based flow cytometry (reference value: 3.20 %); assay type: functional
[28] = test system: A549; assay: Induction of apoptosis in human A549 cells assessed as necrotic cells at 25 nM incubated for 24 hrs by Annexin V/7-Aad staining based flow cytometry (reference value: 2.13 %); assay type: functional
[29] = test system: A549; assay: Induction of apoptosis in human A549 cells assessed as viable cells at 50 nM incubated for 24 hrs by Annexin V/7-Aad staining based flow cytometry (reference value: 93.63 %); assay type: functional; conditions: read-out: Activity
[30] = test system: A549; assay: Induction of apoptosis in human A549 cells assessed as early apoptotic cells at 50 nM incubated for 24 hrs by Annexin V/7-Aad staining based flow cytometry (reference value: 1.05 %); assay type: functional
[31] = test system: A549; assay: Induction of apoptosis in human A549 cells assessed as late apoptotic cells at 50 nM incubated for 24 hrs by Annexin V/7-Aad staining based flow cytometry (reference value: 3.20 %); assay type: functional
[32] = test system: A549; assay: Induction of apoptosis in human A549 cells assessed as necrotic cells at 50 nM incubated for 24 hrs by Annexin V/7-Aad staining based flow cytometry (reference value: 2.13 %); assay type: functional
[33] = test system: A549; assay: Inhibition of cell migration in human A549 cells at 12.5 nM incubated for 24 hrs by wound healing assay relative to control; assay type: functional
[34] = test system: A549; assay: Inhibition of cell migration in human A549 cells at 25 nM incubated for 24 hrs by wound healing assay relative to control; assay type: functional
[35] = test system: A549; assay: Inhibition of cell migration in human A549 cells at 50 nM incubated for 24 hrs by wound healing assay relative to control; assay type: functional
[36] = test system: A549; assay: Antitumor activity against human A549 cells xenografted in Balb/c nude mouse assessed as tumor growth inhibition at 25 mg/kg, IG qd for 21 days relative to control; assay type: functional; conditions: A549, po, 504 h, time 21 day, read-out: TGI
[37] = Toxicity in Balb/c nude mouse xenografted with human A549 cells assessed as body weight loss at 25 mg/kg, IG qd for 21 days; assay type: organism-based; conditions: in vivo, po, 504 h, time 21 day
[38] = Toxicity in Balb/c nude mouse xenografted with human A549 cells assessed as damage in liver at 25 mg/kg, IG qd for 21 days by H and E staining based analysis; assay type: organism-based; conditions: in vivo, po, 504 h, time 21 day
[39] = Toxicity in Balb/c nude mouse xenografted with human A549 cells assessed as damage in kidney at 25 mg/kg, IG qd for 21 days by H and E staining based analysis; assay type: organism-based; conditions: in vivo, po, 504 h, time 21 day
[40] = Toxicity in Balb/c nude mouse xenografted with human A549 cells assessed as damage in spleen at 25 mg/kg, IG qd for 21 days by H and E staining based analysis; assay type: organism-based; conditions: in vivo, po, 504 h, time 21 day

Compound `COc1cc(-n2ncc3ccc(-c4ccccc4)cc32)cc(OC)c1OC` has an IC50 [1] of 52 nM, an IC50 [2] of 42 nM and an IC50 [3] of 80 nM.
In the case of `COc1cc(-n2ncc3ccc(-c4cccc5[nH]ccc45)cc32)cc(OC)c1OC`, the IC50 [4] is reported as 25 nM, the “Ratio IC50” value [5] is reported as 1 and the solubility ([6]; read-out: solubility) is reported as 5.09 µg/mL (≈ 12.7 µM). It also gave a logP at 8 h [7] of 3.1, an IC50 [1] of 25 nM and an IC50 [2] of 28 nM. For the same compound, the IC50 [3] was 30 nM.
With `CC[C@]1(O)C[C@H]2CN(CCc3c([nH]c4ccccc34)[C@@](C(=O)OC)(c3cc4c(cc3OC)N(C=O)[C@H]3[C@@](O)(C(=O)OC)[C@H](OC(C)=O)[C@]5(CC)C=CCN6CC[C@]43[C@@H]65)C2)C1` the Activity [8] was “inactive”.
In the case of `COc1cc(-c2ccc3c(C)nn(-c4ccc(C)cc4)c3c2)cc(OC)c1OC`, the IC50 [1] is reported as > 25000 nM, the IC50 [2] is reported as > 25000 nM and the IC50 [3] is reported as > 25000 nM.
`COc1cc(-n2nc(C)c3ccc(-c4ccc(C)cc4)cc32)cc(OC)c1OC` gave an IC50 [1] of 190 nM, an IC50 [2] of 120 nM and an IC50 [3] of 140 nM.
With `COc1ccc(-c2ccc3c(C)nn(-c4cc(OC)c(OC)c(OC)c4)c3c2)cn1` the IC50 [1] was 1510 nM, the IC50 [2] was 1060 nM and the IC50 [3] was 2230 nM.
Compound `CCOc1ccc(-c2ccc3cnn(-c4cc(OC)c(OC)c(OC)c4)c3c2)cc1` has an IC50 [1] of 1450 nM, an IC50 [2] of 3730 nM and an IC50 [3] of 2280 nM.
In the case of `COc1cc2c(c(OC)c1OC)-c1ccc(OC)c(=O)cc1[C@@H](NC(C)=O)CC2` [COLCHICINE], the IC50 [2] is reported as 24 nM and the IC50 [3] is reported as 46 nM.
For `COc1cc(-c2ccc3c(C)nn(-c4ccc(OC(F)(F)F)cc4)c3c2)cc(OC)c1OC`, the IC50 [1] was 19500 nM, the IC50 [2] was > 25000 nM and the IC50 [3] was > 25000 nM.
`COc1cc(-n2ncc3ccc(-c4ccc5c(ccn5C)c4)cc32)cc(OC)c1OC` gave an IC50 [1] of 63 nM, an IC50 [2] of 73 nM and an IC50 [3] of 120 nM.
With `COc1ccc(-n2nc(C)c3ccc(-c4cc(OC)c(OC)c(OC)c4)cc32)cc1` the IC50 [1] was > 25000 nM, the IC50 [2] was > 25000 nM and the IC50 [3] was > 25000 nM.
For `COc1cc(-n2ncc3ccc(-c4ccc(C)cc4)cc32)cc(OC)c1OC`, the IC50 [1] was 45 nM, the IC50 [2] was 51 nM and the IC50 [3] was 92 nM.
For `COc1cc(-n2ncc3ccc(-c4ccc(C)nc4)cc32)cc(OC)c1OC.Cl`, the IC50 [4] was 33 nM, the “Ratio IC50” value [5] was 1.2 and the solubility [6] was 149 µg/mL. The logP at 8 h [7] was 1.8, the inhibition [9] was “Dose-Dependent Effect” and the IC50 [10] was 1750 nM. For the same compound, the inhibition [11] was “Dose-Dependent Effect”, the inhibition [12] was “Dose-Dependent Effect” and the Activity [13] was “Active”. The Activity [14] was “Dose-Dependent Effect”, the Activity [15] was 68.78% and the Activity [16] was 18.11%. The Activity [17] was 13.1%, the Activity [18] was 3.04% and the Activity [19] was 7.88%. It also gave an Activity [20] of 89.07%, a viability at 0.0125 µM [21] of 92.3% and an Activity [22] of 3.02%. The Activity [23] was 3.28%, the Activity [24] was 1.44% and the viability at 0.025 µM [25] was 69.1%. It also gave an Activity [26] of 16.41%, an Activity [27] of 12.23% and an Activity [28] of 2.26%. For the same compound, the viability at 0.05 µM [29] was 56.6%, the Activity [30] was 26.53% and the Activity [31] was 15.65%. It also gave an Activity [32] of 1.19%, an inhibition at 0.0125 µM [33] of 32.3% and an inhibition at 0.025 µM [34] of 52.2%. The inhibition at 0.05 µM [35] was 83.9%, the inhibition in vivo at 25 mg/kg [36] was 64.1% and the Activity [37] was “Non-Toxic”. The Activity [38] was “Non-Toxic”, the Activity [39] was “Non-Toxic” and the Activity [40] was “Non-Toxic”. The IC50 [1] was 27 nM, the IC50 [2] was 30 nM and the IC50 [3] was 46 nM.
`COc1cc(-n2ncc3ccc(-c4ccncc4)cc32)cc(OC)c1OC` gave an IC50 [1] of 15200 nM, an IC50 [2] of 9220 nM and an IC50 [3] of 16400 nM.
